In one assay the test system is Puccinia triticina. The assay can be described thus: Wheat brown rust (PUCCRT) disease control on wheat seedlings. It counts as in vivo. The arrangement: key to PUCCRT 3DC, HV activity at 100 ppm (% control rating) / PUCCRT disease control, 3DC / PUCCRT 1DP disease control rating, HV activity / PUCCRT 3DC disease control rating, HV activity / PUCCRT 3DC, LV activity at 125.1 g/H (% Control rating) / PUCCRT 1DP, LV activity at 125.1 g/H (% Control rating) / PUCCRT 3DC disease control rating, LV activity at 125.1 g/H / PUCCRT 1DP disease control rating, LV activity at 125.1 g/H / PUCCRT 3DC disease control rating, HV activity at 100 ppm / PUCCRT 1DP disease control rating, HV activity at 100 ppm / HV activity at 100 ppm PUCCRT 3DC (disease control rating) / LV activity at 125.1 g/H PUCCRT 1DP (disease control rating) / LV activity at 125.1 g/H PUCCRT 3DC (disease control rating): A: > 80; B: ≤ 80; C: Not Tested; D: No Activity Observed in the Reported Assay. The conditions noted are these: for PUCCRT 1DP disease control rating, HV activity / PUCCRT 3DC disease control rating, HV activity: HV application at 100 ppm; for PUCCRT 1DP disease control rating, HV activity at 100 ppm / PUCCRT 3DC disease control rating, HV activity at 100 ppm: high volume application; for PUCCRT 1DP disease control rating, HV activity at 100 ppm: 1 day protectant; for PUCCRT 3DC disease control rating, HV activity at 100 ppm: 3 day curative.

Another assay deals with Zymoseptoria tritici. Description: Leaf blotch of wheat (SEPTTR) disease control on wheat seedlings. Also on record: key to SEPTTR 1DP, HV activity at 100 ppm (% control rating) / SEPTTR 3DC, HV activity at 100 ppm (% control rating) / SEPTTR disease control, 1DP / SEPTTR disease control, 3DC / SEPTTR 1DP disease control rating, HV activity / SEPTTR 3DC disease control rating, HV activity / SEPTTR 3DC, LV activity at 125.1 g/H (% Control rating) / SEPTTR 1DP, LV activity at 125.1 g/H (% Control rating) / SEPTTR 1DP disease control rating, LV activity at 125.1 g/H / SEPTTR 3DC disease control rating, LV activity at 125.1 g/H / SEPTTR 3DC disease control rating, HV activity at 100 ppm / SEPTTR 1DP disease control rating, HV activity at 100 ppm / HV activity at 100 ppm SEPTTR 3DC (disease control rating) / HV activity at 100 ppm SEPTTR 1DP (disease control rating) / LV activity at 125.1 g/H SEPTTR 1DP (disease control rating) / LV activity at 125.1 g/H SEPTTR 3DC (disease control rating): A: > 80; B: ≤ 80; C: Not Tested; D: No Activity Observed in the Reported Assay. The conditions noted are these: for SEPTTR 1DP disease control rating, HV activity / SEPTTR 3DC disease control rating, HV activity: HV application at 100 ppm; for SEPTTR 1DP disease control rating, HV activity at 100 ppm / SEPTTR 3DC disease control rating, HV activity at 100 ppm: high volume application; for SEPTTR 1DP disease control rating, HV activity at 100 ppm: 1 day protectant; for SEPTTR 3DC disease control rating, HV activity at 100 ppm: 3 day curative. It counts as in vivo.

The mark [1] stands for this setting: 1 Day Protectant, wheat brown rust.
The mark [2] stands for this setting: 3 Day Curative, wheat brown rust.
[3] abbreviates: 1 Day Protectant, wheat leaf blotch.
Setting [4] is: 3 Day Curative, wheat leaf blotch.
Setting [5] is: low volume application, 125.1 g/H, 1 Day Protectant.
Where [6] appears, read: low volume application, 125.1 g/H, 3 Day Curative.

The structures appear in SMILES notation.

As for `COc1ccnc(C(=O)N[C@@H](C)C(=O)O[C@@H](C)[C@H](Oc2ccccc2)C2CCCC2)c1O` [Cmpd 356], the “PUCCRT 1DP disease control rating, HV activity” value in the assay with Puccinia triticina (setting [1]) is listed as “A (> 80)”. For the same compound, the “PUCCRT 3DC disease control rating, HV activity” value with Puccinia triticina (setting [2]) is “A (> 80)”. Moreover, the “SEPTTR 1DP disease control rating, HV activity” value in the assay with Zymoseptoria tritici (setting [3]) is on record as “A (> 80)”. The “SEPTTR 3DC disease control rating, HV activity” value in the assay with Zymoseptoria tritici (setting [4]) is “B (≤ 80)”.
Consider `COc1ccnc(C(=O)N[C@@H](C)C(=O)O[C@@H](C)[C@H](Oc2cccc(Cl)c2)C(C)(C)C)c1O` [Cmpd 1007], for which, in the assay on Puccinia triticina, the “PUCCRT 1DP disease control rating, HV activity at 100 ppm” value is listed as “A (> 80)” and the “PUCCRT 3DC disease control rating, HV activity at 100 ppm” value is on record as “A (> 80)”. In the assay on Zymoseptoria tritici, the “SEPTTR 1DP disease control rating, HV activity at 100 ppm” value is “A (> 80)” and the “SEPTTR 3DC disease control rating, HV activity at 100 ppm” value is given as “B (≤ 80)”.
With `COc1ccnc(C(=O)NC(C)C(=O)OC(C)C(Oc2ccccc2)C2CCCCC2)c1O` (centres unmarked) [Cmpd 836], in the assay on Puccinia triticina, the “PUCCRT 1DP disease control rating, HV activity at 100 ppm” value is reported as “A (> 80)” and the “PUCCRT 3DC disease control rating, HV activity at 100 ppm” value was “A (> 80)”. In the assay on Zymoseptoria tritici, the “SEPTTR 1DP disease control rating, HV activity at 100 ppm” value is reported as “A (> 80)” and the “SEPTTR 3DC disease control rating, HV activity at 100 ppm” value is recorded as “A (> 80)”.
For `CCCOC(CC)C(Oc1ccccc1)C(C)OC(=O)C(NC(=O)c1nccc(OC)c1OC(C)=O)C(C)CC` (centres unmarked) [Cmpd 453], in the assay on Puccinia triticina (setting [1]), the “PUCCRT 1DP disease control rating, HV activity” value is listed as “A (> 80)”. Besides, the “PUCCRT 3DC disease control rating, HV activity” value in the assay on Puccinia triticina (setting [2]) is recorded as “A (> 80)”. In addition, the “SEPTTR 1DP disease control rating, HV activity” value with Zymoseptoria tritici (setting [3]) is listed as “B (≤ 80)”. The “SEPTTR 3DC disease control rating, HV activity” value in the assay on Zymoseptoria tritici (setting [4]) was “B (≤ 80)”.
Consider `COc1ccnc(C(=O)N[C@@H](C)C(=O)O[C@@H](C)[C@H](Oc2cccc(Cl)c2)C2CC2)c1OC(C)=O` [Cmpd 1053], for which the “LV activity at 125.1 g/H PUCCRT 1DP (disease control rating)” value with Puccinia triticina (low volume application, 125.1 g/H, 1 Day Protectant, wheat brown rust) is recorded as “A (> 80)”. Besides, the “LV activity at 125.1 g/H PUCCRT 3DC (disease control rating)” value in the assay on Puccinia triticina (low volume application, 125.1 g/H, 3 Day Curative, wheat brown rust) is given as “A (> 80)”. In addition, the “LV activity at 125.1 g/H SEPTTR 1DP (disease control rating)” value in the assay with Zymoseptoria tritici (low volume application, 125.1 g/H, 1 Day Protectant, wheat leaf blotch) is “B (≤ 80)”. For the same compound, in the assay on Zymoseptoria tritici (low volume application, 125.1 g/H, 3 Day Curative, wheat leaf blotch), the “LV activity at 125.1 g/H SEPTTR 3DC (disease control rating)” value is “A (> 80)”.
In the case of `COc1ccnc(C(=O)N[C@@H](C)C(=O)O[C@@H](C)[C@H](OCC2CC2)C(C)(C)C)c1O` [Cmpd 1004], in the assay with Puccinia triticina, the “PUCCRT 1DP disease control rating, HV activity at 100 ppm” value is “A (> 80)” and the “PUCCRT 3DC disease control rating, HV activity at 100 ppm” value is “A (> 80)”. In the assay with Zymoseptoria tritici, the “SEPTTR 1DP disease control rating, HV activity at 100 ppm” value is “B (≤ 80)” and the “SEPTTR 3DC disease control rating, HV activity at 100 ppm” value is “B (≤ 80)”.
Turning to `CCCOC(C(C)C)C(C)OC(=O)C(C)NC(=O)c1nccc(OC)c1O` (centres unmarked) [Cmpd 435], the “PUCCRT 1DP disease control rating, HV activity” value in the assay with Puccinia triticina (setting [1]) is “B (≤ 80)”. In the assay on Puccinia triticina (setting [2]), the “PUCCRT 3DC disease control rating, HV activity” value was “B (≤ 80)”. Moreover, the “SEPTTR 1DP disease control rating, HV activity” value with Zymoseptoria tritici (setting [3]) is reported as “D”. Further, in the assay on Zymoseptoria tritici (setting [4]), the “SEPTTR 3DC disease control rating, HV activity” value is given as “D”.
With `CCCOC(CC)C(Oc1ccccc1)C(C)OC(=O)C(NC(=O)c1nccc(OC)c1OC(C)=O)C(C)C` (centres unmarked) [Cmpd 451], the “PUCCRT 1DP disease control rating, HV activity” value in the assay with Puccinia triticina (setting [1]) is on record as “A (> 80)”. For the same compound, the “PUCCRT 3DC disease control rating, HV activity” value with Puccinia triticina (setting [2]) is reported as “A (> 80)”. For the same compound, in the assay with Zymoseptoria tritici (setting [3]), the “SEPTTR 1DP disease control rating, HV activity” value is on record as “B (≤ 80)”. Moreover, the “SEPTTR 3DC disease control rating, HV activity” value in the assay on Zymoseptoria tritici (setting [4]) is “A (> 80)”.
For the compound `CCC(CC)[C@@H](Oc1cc(F)ccc1F)[C@H](C)OC(=O)[C@H](C)NC(=O)c1nccc(OC)c1OCOC(C)=O` [Cmpd 591], the “PUCCRT 1DP, LV activity at 125.1 g/H (% Control rating)” value in the assay on Puccinia triticina (setting [5]) is given as “A (> 80)”. Besides, the “PUCCRT 3DC, LV activity at 125.1 g/H (% Control rating)” value with Puccinia triticina (setting [6]) is listed as “A (> 80)”. Besides, the “SEPTTR 1DP, LV activity at 125.1 g/H (% Control rating)” value in the assay on Zymoseptoria tritici (setting [5]) is given as “B (≤ 80)”. For the same compound, in the assay on Zymoseptoria tritici (setting [6]), the “SEPTTR 3DC, LV activity at 125.1 g/H (% Control rating)” value was “A (> 80)”.
On to `CCC(CC)[C@@H](Oc1ccc(F)cc1)[C@H](C)OC(=O)[C@@H](NC(=O)c1nccc(OC)c1OC(C)=O)C(C)C` [Cmpd 657], for which the “PUCCRT 1DP, LV activity at 125.1 g/H (% Control rating)” value in the assay on Puccinia triticina (setting [5]) was “A (> 80)”. Also, in the assay with Puccinia triticina (setting [6]), the “PUCCRT 3DC, LV activity at 125.1 g/H (% Control rating)” value is listed as “B (≤ 80)”. The “SEPTTR 1DP, LV activity at 125.1 g/H (% Control rating)” value in the assay on Zymoseptoria tritici (setting [5]) is listed as “A (> 80)”. Further, the “SEPTTR 3DC, LV activity at 125.1 g/H (% Control rating)” value in the assay with Zymoseptoria tritici (setting [6]) is reported as “B (≤ 80)”.
As to `CCC(CC)C(Oc1cc(F)ccc1F)C(C)OC(=O)C(CC(C)C)NC(=O)c1nccc(OC)c1O` (centres unmarked) [Cmpd 428], the “PUCCRT 1DP disease control rating, HV activity” value with Puccinia triticina (setting [1]) is listed as “B (≤ 80)”. Also, the “PUCCRT 3DC disease control rating, HV activity” value in the assay on Puccinia triticina (setting [2]) was “D”. The “SEPTTR 1DP disease control rating, HV activity” value in the assay on Zymoseptoria tritici (setting [3]) is recorded as “D”. The “SEPTTR 3DC disease control rating, HV activity” value in the assay on Zymoseptoria tritici (setting [4]) is “D”.

(Values after patent publication US20180000085A1, “USE OF PICOLINAMIDE COMPOUNDS WITH FUNGICIDAL ACTIVITY” (DOW AGROSCIENCES LLC, priority 2014, published 2018).)
